Source: patent publication US20230398130A1, “METHODS AND COMPOSITIONS FOR DIFFERENTIATING STEM CELLS” (Massachusetts Institute of Technology, priority 2020, published 2023)

Columns and labels:
ISC-enriched organoids [1] = assay: Primary screen, 384-well 2.5-D organoid differentiation (ENR+CD, 6 days, Target Selective Inhibitor Library, vs whole-plate median): ATP (CellTiter-Glo 3D, CTG); conditions: for Dose.FC.CTG: FC vs plate median
ISC-enriched organoids [2] = assay: Primary screen, 384-well 2.5-D organoid differentiation (ENR+CD, 6 days): carbachol-induced lysozyme secretion (LYZ.S); type: cell-based, murine; conditions: FC vs plate median
Text: (§1) High-throughput screening.

ISC-enriched organoids [3] = assay: Primary screen, 384-well 2.5-D organoid differentiation (ENR+CD, 6 days): basal lysozyme secretion (LYZ.NS); type: cell-based, murine; conditions: for Dose.FC.LYZ.NS: FC vs plate median
Text: as §1

[4] = Dose 0.08 uM, standard z score of FC
[5] = Dose 0.40 uM, standard z score of FC
[6] = Dose 2.00 uM, standard z score of FC
[7] = Dose 10.00 uM, standard z score of FC
[8] = primary screen, dose 0.08 uM, ENR+CD 6 days
[9] = primary screen, dose 0.08 uM, standard z score of FC
[10] = primary screen, dose 0.40 uM, ENR+CD 6 days
[11] = primary screen, dose 0.40 uM, standard z score of FC
[12] = primary screen, dose 2.00 uM, ENR+CD 6 days
[13] = primary screen, dose 2.00 uM, standard z score of FC
[14] = primary screen, dose 10.00 uM, ENR+CD 6 days
[15] = primary screen, dose 10.00 uM, standard z score of FC
[16] = Dose 0.08 uM, primary screen, standard z score
[17] = Dose 0.40 uM, primary screen, standard z score
[18] = Dose 2.00 uM, primary screen, standard z score
[19] = Dose 10.00 uM, primary screen, standard z score

Structure (SMILES) | Dose.FC.CTG (ISC-enriched organoids [1]; Dose 0.08 uM, primary screen) [log 2 fold change] | Z.CTG (ISC-enriched organoids [1]; [16]) | Dose.FC.CTG (ISC-enriched organoids [1]; Dose 0.40 uM, primary screen) [log 2 fold change] | Z.CTG (ISC-enriched organoids [1]; [17]) | Dose.FC.CTG (ISC-enriched organoids [1]; Dose 2.00 uM, primary screen) [log 2 fold change] | Z.CTG (ISC-enriched organoids [1]; [18]) | Dose.FC.CTG (ISC-enriched organoids [1]; Dose 10.00 uM, primary screen) [log 2 fold change] | Z.CTG (ISC-enriched organoids [1]; [19]) | Dose.FC.LYZ.S (ISC-enriched organoids [2]; Dose 0.08 uM, primary screen) [log 2 fold change] | Dose.FC.LYZ.S (ISC-enriched organoids [2]; Dose 0.40 uM, primary screen) [log 2 fold change] | Dose.FC.LYZ.S (ISC-enriched organoids [2]; Dose 2.00 uM, primary screen) [log 2 fold change] | Dose.FC.LYZ.S (ISC-enriched organoids [2]; Dose 10.00 uM, primary screen) [log 2 fold change] | Dose.FC.LYZ.NS (ISC-enriched organoids [3]; Dose 0.08 uM, primary screen) [log 2 fold change] | Z.LYZ.NS (ISC-enriched organoids [3]; [16]) | Dose.FC.LYZ.NS (ISC-enriched organoids [3]; Dose 0.40 uM, primary screen) [log 2 fold change] | Z.LYZ.NS (ISC-enriched organoids [3]; [17]) | Dose.FC.LYZ.NS (ISC-enriched organoids [3]; Dose 2.00 uM, primary screen) [log 2 fold change] | Z.LYZ.NS (ISC-enriched organoids [3]; [18]) | Dose.FC.LYZ.NS (ISC-enriched organoids [3]; Dose 10.00 uM, primary screen) [log 2 fold change] | Z.LYZ.NS (ISC-enriched organoids [3]; [19]) | also measured
C[C@H]1COC2=C1C(=O)C(=O)c1c2ccc2c1CCCC2(C)C [Cryptotanshinone] | – | – | – | – | – | – | – | – | – | – | – | – | – | – | – | – | – | – | – | – | Dose.FC.CTG (ISC-enriched organoids [1]; Dose 0.08 uM, ENR+CD, 6 days): 0.199 log 2 fold change; Z.CTG (ISC-enriched organoids [1]; [4]): 0.475; Dose.FC.CTG (ISC-enriched organoids [1]; Dose 0.40 uM, ENR+CD, 6 days): −0.027 log 2 fold change; Z.CTG (ISC-enriched organoids [1]; [5]): −0.065; Dose.FC.CTG (ISC-enriched organoids [1]; Dose 2.00 uM, ENR+CD, 6 days): −0.184 log 2 fold change; Z.CTG (ISC-enriched organoids [1]; [6]): −0.439; Dose.FC.CTG (ISC-enriched organoids [1]; Dose 10.00 uM, ENR+CD, 6 days): −0.541 log 2 fold change; Z.CTG (ISC-enriched organoids [1]; [7]): −1.292; Dose.FC.LYZ.S (ISC-enriched organoids [2]; Dose 0.08 uM, ENR+CD, 6 days): 0.156 log 2 fold change; Dose.FC.LYZ.S (ISC-enriched organoids [2]; Dose 0.40 uM, ENR+CD, 6 days): −0.105 log 2 fold change; Dose.FC.LYZ.S (ISC-enriched organoids [2]; Dose 2.00 uM, ENR+CD, 6 days): −0.288 log 2 fold change; Dose.FC.LYZ.S (ISC-enriched organoids [2]; Dose 10.00 uM, ENR+CD, 6 days): −0.432 log 2 fold change; Dose.FC.LYZ.NS (ISC-enriched organoids [3]; Dose 0.08 uM, ENR+CD, 6 days): 0.143 log 2 fold change; Z.LYZ.NS (ISC-enriched organoids [3]; [4]): 1.243; Dose.FC.LYZ.NS (ISC-enriched organoids [3]; Dose 0.40 uM, ENR+CD, 6 days): −0.120 log 2 fold change; Z.LYZ.NS (ISC-enriched organoids [3]; [5]): −1.047; Dose.FC.LYZ.NS (ISC-enriched organoids [3]; Dose 2.00 uM, ENR+CD, 6 days): −0.182 log 2 fold change; Z.LYZ.NS (ISC-enriched organoids [3]; [6]): −1.585; Dose.FC.LYZ.NS (ISC-enriched organoids [3]; Dose 10.00 uM, ENR+CD, 6 days): −0.288 log 2 fold change; Z.LYZ.NS (ISC-enriched organoids [3]; [7]): −2.506
CCNC(=O)c1noc(-c2cc(C(C)C)c(O)cc2O)c1-c1ccc(CN2CCOCC2)cc1 [AUY922 (NVP-AUY922)] | – | – | – | – | – | – | – | – | – | – | – | – | – | – | – | – | – | – | – | – | Dose.FC.CTG (ISC-enriched organoids [1]; [8]): −1.185 log 2 fold change; Z.CTG (ISC-enriched organoids [1]; [9]): −2.830; Dose.FC.CTG (ISC-enriched organoids [1]; [10]): −1.343 log 2 fold change; Z.CTG (ISC-enriched organoids [1]; [11]): −3.208; Dose.FC.CTG (ISC-enriched organoids [1]; [12]): −1.137 log 2 fold change; Z.CTG (ISC-enriched organoids [1]; [13]): −2.715; Dose.FC.CTG (ISC-enriched organoids [1]; [14]): −1.270 log 2 fold change; Z.CTG (ISC-enriched organoids [1]; [15]): −3.032; Dose.FC.LYZ.S (ISC-enriched organoids [2]; [8]): −0.209 log 2 fold change; Dose.FC.LYZ.S (ISC-enriched organoids [2]; [10]): −0.184 log 2 fold change; Dose.FC.LYZ.S (ISC-enriched organoids [2]; [12]): −0.216 log 2 fold change; Dose.FC.LYZ.S (ISC-enriched organoids [2]; [14]): −0.214 log 2 fold change; Dose.FC.LYZ.NS (ISC-enriched organoids [3]; [8]): −0.144 log 2 fold change; Z.LYZ.NS (ISC-enriched organoids [3]; [9]): −1.251; Dose.FC.LYZ.NS (ISC-enriched organoids [3]; [10]): −0.154 log 2 fold change; Z.LYZ.NS (ISC-enriched organoids [3]; [11]): −1.343; Dose.FC.LYZ.NS (ISC-enriched organoids [3]; [12]): −0.138 log 2 fold change; Z.LYZ.NS (ISC-enriched organoids [3]; [13]): −1.200; Dose.FC.LYZ.NS (ISC-enriched organoids [3]; [14]): −0.153 log 2 fold change; Z.LYZ.NS (ISC-enriched organoids [3]; [15]): −1.330
COc1ccc2c(c1)c(C1=C(c3c[nH]c4ccccc34)C(=O)NC1=O)cn2CCCN(C)C [Go 6983] | 0.021 | 0.050 | −0.036 | −0.085 | 0.058 | 0.138 | −0.181 | −0.433 | 0.021 | 0.007 | −0.010 | −0.073 | −0.005 | −0.046 | 0.013 | 0.114 | 0.091 | 0.791 | −0.092 | −0.798 | –
Fc1cc(F)c2c(c1)[C@H]1C=CC[C@H]1C(c1cccnc1)N2 (mixture of isomers) [Golgicide A] | 0.167 | 0.398 | 0.227 | 0.541 | 0.339 | 0.810 | −0.220 | −0.526 | 0.146 | 0.202 | 0.076 | −0.256 | 0.267 | 2.325 | 0.066 | 0.576 | 0.171 | 1.492 | −0.161 | −1.402 | –
